Experimental data reported in US20250368625A1, “PIPERAZINES” (Grünenthal GmbH, priority 2024, published 2025).

Biological target: T1, human SSTR4 (Homo sapiens, UniProt P31391)
T1 construct: expressed in transfected cells; host or cells: CHO-K1
Assay: hSSTR4 cAMP assay (cAMP accumulation, LANCE Ultra cAMP kit, CHO-K1 human SSTR4 Gi cell line)
Assay type: cell-based
Details: functional agonism, forskolin 10 μM stimulated CHO-K1 human SSTR4 Gi cells, 30 min at 25° C., at least duplicate, averaged; read-out: hSSTR4 EC50
In short: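 CHO-K1 cells expressing human SSTR4 (Gi), pre-cultured 18-20 h or thawed and used directly, stimulated with 10 μM forskolin plus test agonist in concentration series, 30 min at 25° C. Lysate cAMP read by TR-FRET (Eu-cAMP tracer/ULight-anti-cAMP, 1 h, 25° C). Normalized to forskolin-only and forskolin+100 nM SST14 controls, 4-parameter fit; ≥duplicate, averaged.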

T1 sequence (P31391 whole entry): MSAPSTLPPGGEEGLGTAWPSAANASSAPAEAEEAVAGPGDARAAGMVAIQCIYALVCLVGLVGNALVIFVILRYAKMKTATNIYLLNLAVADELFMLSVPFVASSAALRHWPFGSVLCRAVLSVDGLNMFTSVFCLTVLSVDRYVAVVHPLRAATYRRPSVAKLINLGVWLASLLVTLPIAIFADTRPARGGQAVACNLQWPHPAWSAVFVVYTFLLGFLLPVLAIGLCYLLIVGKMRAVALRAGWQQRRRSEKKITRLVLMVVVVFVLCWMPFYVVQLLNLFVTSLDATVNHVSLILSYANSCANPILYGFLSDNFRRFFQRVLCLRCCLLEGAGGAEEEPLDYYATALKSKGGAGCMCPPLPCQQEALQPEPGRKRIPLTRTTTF

Row | Structure (SMILES) | EC50 [nM]
1 | Cc1cccc2c(C(C)(C)NC(=O)[C@@H]3CN(C)CCN3)n[nH]c12 [SC-095, (S)-4-methyl-N-(2-(7-methyl-1H-indazol-3-yl)propan-2-yl)piperazine-2-carboxamide] | 2.9
2 | Cc1cccc2c(C(C)(C)NC(=O)[C@@H]3CNCCN3CC3CCOCC3)n[nH]c12 [SC-096, (S)-N-(2-(7-methyl-1H-indazol-3-yl)propan-2-yl)-1-((tetrahydro-2H-pyran-4-yl)methyl)piperazine-2-carboxamide] | 0.46
3 | COCCN1CCNC[C@H]1C(=O)NC(C)(C)c1n[nH]c2c(C)cccc12 [SC-097, (S)-1-(2-methoxyethyl)-N-(2-(7-methyl-1H-indazol-3-yl)propan-2-yl)piperazine-2-carboxamide] | 1.2
4 | Cc1cccc2c(C(C)(C)NC(=O)[C@@H]3CNCCN3CC(F)(F)F)n[nH]c12 [SC-098, (S)-N-(2-(7-methyl-1H-indazol-3-yl)propan-2-yl)-1-(2,2,2-trifluoroethyl)piperazine-2-carboxamide] | 0.07
5 | CN1CCN[C@H](C(=O)NC(C)(C)c2ncc3c(Cl)cccn23)C1 [SC-105, (S)-N-(2-(8-chloroimidazo[1,5-a]pyridin-3-yl)propan-2-yl)-4-methylpiperazine-2-carboxamide] | 31
6 | Cn1cc(CN2CCNC[C@H]2C(=O)NC(C)(C)c2ncc3c(Cl)cccn23)cn1 [SC-106, (S)-N-(2-(8-chloroimidazo[1,5-a]pyridin-3-yl)propan-2-yl)-1-((1-methyl-1H-pyrazol-4-yl)methyl)piperazine-2-carboxamide] | 1.5
7 | CC(C)(NC(=O)[C@@H]1CNCCN1CC1CC(F)(F)C1)c1ncc2c(Cl)cccn12 [SC-107, (S)-N-(2-(8-chloroimidazo[1,5-a]pyridin-3-yl)propan-2-yl)-1-((3,3-difluorocyclobutyl)methyl)piperazine-2-carboxamide] | 0.76
8 | CC(C)(NC(=O)[C@@H]1CNCCN1)c1ncc2c(Cl)cccn12 [SC-108, (S)-N-(2-(8-chloroimidazo[1,5-a]pyridin-3-yl)propan-2-yl)piperazine-2-carboxamide] | 19
9 | CN1CCNC[C@H]1C(=O)NC(C)(C)c1ncc2c(C(F)(F)F)cccn12 [SC-110, (S)-1-methyl-N-(2-(8-(trifluoromethyl)imidazo[1,5-a]pyridin-3-yl)propan-2-yl)piperazine-2-carboxamide] | 36

Continued, values first:

Row | EC50 [nM] | Structure (SMILES)
10 | 21 | CN1CCN[C@H](C(=O)NC(C)(C)c2nn(C)c3ccccc23)C1 [SC-099, (S)-4-methyl-N-(2-(1-methyl-1H-indazol-3-yl)propan-2-yl)piperazine-2-carboxamide]
11 | 0.91 | CN1CCNC[C@H]1C(=O)NC(C)(C)c1nn(C)c2ccccc12 [SC-100, (S)-1-methyl-N-(2-(1-methyl-1H-indazol-3-yl)propan-2-yl)piperazine-2-carboxamide]
12 | 5.9 | COCCN1CCNC[C@H]1C(=O)NC(C)(C)c1nn(C)c2ccccc12 [SC-101, (S)-1-(2-methoxyethyl)-N-(2-(1-methyl-1H-indazol-3-yl)propan-2-yl)piperazine-2-carboxamide]
13 | 0.84 | Cn1nc(C(C)(C)NC(=O)[C@@H]2CNCCN2CC(F)(F)F)c2ccccc21 [SC-102, (S)-N-(2-(1-methyl-1H-indazol-3-yl)propan-2-yl)-1-(2,2,2-trifluoroethyl)piperazine-2-carboxamide]
14 | 0.22 | Cn1nc(C(C)(C)NC(=O)[C@@H]2CNCCN2CC2CCOCC2)c2ccccc21 [SC-103, (S)-N-(2-(1-methyl-1H-indazol-3-yl)propan-2-yl)-1-((tetrahydro-2H-pyran-4-yl)methyl)piperazine-2-carboxamide]
15 | 0.9 | CN1CCNC[C@H]1C(=O)NC(C)(C)c1ncc2c(Cl)cccn12 [SC-104, (S)-N-(2-(8-chloroimidazo[1,5-a]pyridin-3-yl)propan-2-yl)-1-methylpiperazine-2-carboxamide]
16 | 1600 | CN1CCNC[C@@H]1C(=O)NC(C)(C)c1ncc2c(Cl)cccn12 [SC-109, (R)-N-(2-(8-chloroimidazo[1,5-a]pyridin-3-yl)propan-2-yl)-1-methylpiperazine-2-carboxamide]
